Data taken from US20250326756A1, “METHOD FOR PRODUCING 3,6-DISUBSTITUTED-IMIDAZO[1,2-B]PYRIDAZINE COMPOUNDS” (NUVATION BIO INC., priority 2022, published 2025).

Experiment: Particle size distribution of monoadipate salt particles
Assay type: physicochemical
Conditions: particles without milling or after wet milling
Procedure: The crude product was purified and milled as follows: After 4.02 Kg/Kg of anhydrous ethanol and 2.2 Kg/Kg of purified water were added into a reactor and stirred, the crude product obtained above was added to the mixture. The reaction mixture was heated to 65-70° C. and stirred until a clear solution was obtained. The recommended stirring time and rotation speed were 0.5-1 hour and 60-100 rpm, respectively. The reaction mixture was then cooled to 50-55° C. (target temperature: 53° C.) with a recommended cooling rate of 5-10° C./h. After 0.01 Kg/Kg of seed crystals of the compound of formula (5) adipate salt were added to the mixture at 50˜55° C., the mixture was stirred for 1˜3 hours (target: 2 hours) at this temperature. The reaction mixture was cooled down to 20-30° C. (target temperature: 25° C.) with recommended cooling rate of 5-10° C./h. After 8.4 Kg/Kg of purified water was slowly added to the mixture at 20-30° C. in 1-3 hours (target: 2 hours), the mixture was stirred for 1˜3 hours (target: 2 hours) at this temperature. The mixture was cooled to −5 to 5° C. (target temperature: 0° C.) at a cooling rate of 5 to 10° C./h, and stirred at this temperature for 4 to 8 hours (target: 6 hours). While maintaining the temperature at −5 to 5° C. (target temperature: 0° C.), the reaction mixture was passed through a wet mill (Blade no. 2, 6, and 6; rotation speed: 6,000-10,000 rpm, target: 8,000 rpm). Samples were taken every 20-30 minutes to measure the particle size of the solids after wet milling until D50 was no more than 45 μm (target: 35-45 μm). The reaction mixture was filtered through a filter with filter dryer sheath pre-cooled to T=−5˜5° C. The filter cake was washed with a mixture of 1.1 Kg/Kg of purified water and 0.39 Kg/Kg of anhydrous ethanol, which was pre-cooled to −5˜5° C. and maintain for at least 0.5 hour. The solid thus obtained was dried at 50˜60° C. in an oven under a controlled temperature of no more than 70° C. for 12 hours. Samples were taken every 4˜8 hours to track the residual ethanol and make sure the content of residual ethanol was no more than 0.4%. […]

Substance: 3-(4-((R)-2-aminopropoxy)phenyl)-N—((R)-1-(3-fluorophenyl)ethyl)imidazo[1,2-b]pyridazin-6-amine adipate salt [compound of formula (5) adipate salt]
- Particle size D10: 7.2 μm
- Particle size D50: 44 μm
- Particle size D90: 107 μm
